The values that follow come from patent US4530923A, “N-acetamilide, N-(phenoxy-2-propanol)- and N-(phenylamino-2-propanol)-cyclicamines” (Egyt Gyogyszervegyeszeti Gyar, priority 1981, dated 1985).

Data set [1] is described as follows: therapeutic index LD50:ED50 related to antiarrhythmic activity on ventricle. The format is in vivo, LD50: male Wistar rats; ED50: cats (b90) / rats (b59). To be noted: rat, in vivo, iv; LD50 p.os rats; ED50 i.v. The method, then: (§1) The animals were anaesthetized with chloralose-urethane [50/30 mg/kg, i.v.]. The minimal strength of the current necessary to evoke the ventricular and auricular fibrillo-flutter, respectively, was followed by the method of Szekeres and al. [Szekeres, Mehes and Papp: Brit. J. Pharmacol. 17, 167 (1961); Szekeres and Papp: Experimental Cardiac Arrhythmias and Antiarrhythmic Drugs, Akademiai Kiado, Budapest, 1971; Szekeres and Papp: Experimental Cardiac Arrhythmias, Hdb. Exp. Pharmacol. XVI/3, 131, (1975).
(§2) The therapeutic indices related to the antiarrhythmic activity were calculated on the basis of the LD50 /ED50 ratio, where LD50 is the doses resulting in the death of the 50% of the animals (rats), and ED50 is the dosis provoking a 50% rise in the electrical threshold for fibrillation on rats. The LD50 values were determined on male Wistar rats weighing 180 to 220 g by the method of Litchfield and Wilcoxon [J. Pharmacol. Exp. Ther. 95, 49 (1949)].
(§3) The i.v. and p.os LD50 values were determined on rats.

For data set [2], the system named is Ventricle. Described as above. The format is in vivo, LD50: male Wistar rats; ED50: cats (b90) / rats (b59). The note with it: for Ventricle: Therapeutic index LD50:ED50 /i.v.//i.v./: LD50 i.v. rats. The method, then: as §1, §2, §3
In data set [3] the test system is Auricle. In words: antiarrhythmic activity, electrical fibrillation threshold of auricle, anaesthetized cats. The note with it: relative to quinidine = 1.00, from ED50 mg/kg, i.v., fibrillation threshold method. The format is in vivo. As to the method:
as §1, §2
(§4) ^+ Relative activity calculated from the antiarrhythmic activity
(§5) [ED50 mg/kg, i.v.] determined on cats by the fibrillation threshold

A further data set concerns left auricle. In words: heartelectrophysiological test on isolated rabbit heart preparation, left auricle. To be noted: Oryctolagus cuniculus, percentage of the original values; for activation at 5 µg/mL: 5 mg/l; for activation at 0.2 µg/mL: 0.2 mg/l; for activation at 0.5 µg/mL: 0.5 mg/l.
Data set [4] in a line: therapeutic index LD50:ED50 related to antiarrhythmic activity on auricle. The format is in vivo, LD50: male Wistar rats; ED50: cats (b90) / rats (b59). To be noted: rat, in vivo, iv, ED50 i.v. As to the method: as §1, §2, §3
The next data set concerns right auricle. In words: heartelectrophysiological test on isolated rabbit heart preparation, right auricle. The note with it: Oryctolagus cuniculus, percentage of the original values, read-out: Spontaneous frequency /right auricle/; for inhibition at 0.2 µg/mL: 0.2 mg/l.
For data set [5], the system named is cardiac rhythm disturbances. To be noted: cited from earlier work.
The test system of data set [6] is Ventricle. In words: antiarrhythmic activity, electrical fibrillation threshold of ventricle, anaesthetized cats. The format is in vivo. To be noted: relative to quinidine = 1.00, from ED50 mg/kg, i.v., fibrillation threshold method. As to the method: as §1, §2, §4, §5
Another data set relates to papillary muscle. In words: heartelectrophysiological test on isolated rabbit heart preparation, papillary muscle. To be noted: Oryctolagus cuniculus, percentage of the original values; for activation at 5 µg/mL: 5 mg/l; for activation at 0.2 µg/mL: 0.2 mg/l; for activation at 0.5 µg/mL: 0.5 mg/l.
For data set [7], the system named is isolated rabbit heart preparation. In words: heartelectrophysiological methods on an isolated rabbit heart preparation (summary). From the text: The compounds of Examples 5, 6 and 7, tested by heartelectrophysiological methods on an isolated rabbit heart preparation decrease the spontaneous frequency of right ventricle, increase the electric stimulus threshold, prolong the effective refractory period and also the time of stimulus conduction. The data referring hereto are given in Table II, in the percentage of the original values.

Another data set concerns dogs. In words: haemodynamics in dogs anaesthetized with nembutal. The format is in vivo. To be noted: nembutal anaesthesia, 0.5 to 2 mg/kg i.v. As to the method:
On dogs anaesthetized with nembutal (35 mg/kg, i.v.) in an i.v. dosis of 0.5 to 2 mg/kg the compounds slightly decrease the arterial blood pressure. The compounds of Examples 5 and 6 decrease the coronary resistance, improve the oxygenization of the heart muscle, increase the blood flow of the artery femoralis, and the compound of Example 5 increases also the blood flow of arteria carotis.

Data set [8] has as its system Auricle. In words: therapeutic index LD50:ED50 related to antiarrhythmic activity on auricle. The format is in vivo, LD50: male Wistar rats; ED50: cats (b90) / rats (b59). As to the method: as §1, §2, §3
The subject of data set [9] is nervus ischiadicus of frog. In words: local anaesthetic effect on action potential of nervus ischiadicus of frog.
[10] abbreviates: read-out: Effective refractory period /left auricle/.
Setting [11] is: read-out: Electrical threshold /left auricle/.
Where [12] appears, read: read-out: Time of the stimulus-conduction /left auricle/.
Where [13] appears, read: LD50 i.v. rats, read-out: Auricle: Therapeutic index LD50:ED50 /i.v.//i.v./.
Setting [14] is: LD50 p.os rats, read-out: Auricle: Therapeutic index LD50:ED50 /p.os//i.v./.
[15] abbreviates: read-out: Effective refractory period /papillary muscle/.
[16] abbreviates: read-out: Electrical threshold /papillary muscle/.
Where [17] appears, read: ventricle (from Table I), versus quinidine.

Structures are written as SMILES. Where two headings read alike, the source gives them in different places.

Regarding `C=C[C@H]1C[N@@]2CC[C@H]1C[C@@H]2[C@@H](O)c1ccnc2ccc(OC)cc12` [Quinidine, reference compound], the results for the selectivity ratio in data set [1], in [4] (setting [13]) and in data set [4] (setting [14]) were 145, 13.4 and 280, respectively. Also, the “Ventricle: Therapeutic index LD50:ED50 /i.v.//i.v./” value with Ventricle [2] came out at 6.9. Also, the “Auricle: Relative activity” value with Auricle [3] is 1.00. Further, the activation at 5 µg/mL in the data set with left auricle (setting [10]) was determined as 32%; in the data set with left auricle (setting [11]), 120%; in the data set on left auricle (setting [12]) it was 90%; with papillary muscle (setting [15]), 55%; in the data set with papillary muscle (setting [16]) it was 56%. In the data set with right auricle (5 mg/l), the inhibition at 5 µg/mL came out at 12 ± 1%. Besides, the “effectiveness in cardiac rhythm disturbances” value in [5] (Br. Heart J. 38, 381 (1976)) is “effective primarily in the treatment of arrhythmia, auricular flutter, fibrillation and paroxysmal tachycardia”. For the same compound, the toxic side-effects result in data set [5] (background literature) was “induce subjective hyperaesthesia, create vision problems, headache and nausea, and give rise to grave asthmatic symptoms”. In addition, the “Ventricle: Relative activity” value in the data set on Ventricle [6] is on record as 1.00.

Consider `Cc1cccc(C)c1OCC(O)CN1CCCCCCC1` (stereo not shown) [Example 6, 1-(2,6-dimethylphenoxy)-3-heptamethyleneimino-propanol-2], for which the “effective refractory period (in words)” value in data set [7] is “prolong”. In addition, in [7], the “electric stimulus threshold (in words)” value is recorded as “increase”. Besides, the “spontaneous frequency of right ventricle (in words)” value (“spontaneous frequency” below) in data set [7] was “decrease”. Further, the “time of stimulus conduction (in words)” value in [7] is reported as “prolong”. Moreover, the selectivity ratio is 229 in data set [1], 23.9 in data set [4] (setting [13]) and 1960 in data set [4] (setting [14]). In addition, the “Ventricle: Therapeutic index LD50:ED50 /i.v.//i.v./” value in the data set with Ventricle [2] worked out at 2.8. For the same compound, in the data set on Ventricle [2] (setting [17]), the “quotient per os LD50 / i.v. ED50, times higher than that of quinidine” value was “about 1.6 times”. Also, the “blood flow of the artery femoralis” value in the data set on dogs is recorded as “increase”. The coronary resistance entry in the data set with dogs is reported as “decrease”. The “oxygenization of the heart muscle” value in the data set on dogs was “improve”. In addition, in the data set with Auricle [3], the “Auricle: Relative activity” value amounted to 12.50. The activation at 0.2 µg/mL in the data set on left auricle (setting [10]) is 3%; in the data set with left auricle (setting [11]), 19%; with left auricle (setting [12]) it was 15%; with papillary muscle (setting [15]), 4%; in the data set on papillary muscle (setting [16]), 9%. Further, in the data set with Auricle [8] (among the tested compounds), the “therapeutic index related to the supraventricular activity (in words)” value was “most preferable therapeutic index”. Moreover, the “therapeutic index related to supraventricular activity (i.v. toxicity), times higher than that of quinidine” value with Auricle [8] (i.v. LD50 / i.v. ED50, versus quinidine) was “about 1.8 times”. Further, the “therapeutic index related to supraventricular activity (per os toxicity), times higher than that of quinidine” value in the data set with Auricle [8] (per os LD50 / i.v. ED50, versus quinidine) is about 7 times. Moreover, the inhibition at 0.2 µg/mL in the data set with right auricle was 7 ± 1%. Also, the “Ventricle: Relative activity” value in the data set on Ventricle [6] worked out at 2.80. Besides, in data set [9], the “local anaesthetic effect (in words)” value is given as “strong local anaesthetic effect”. The “local anaesthetic effect, times stronger than that of lidocaine” value in [9] (versus lidocaine) is given as 2.7 times.

Take `Cc1cccc(C)c1OCC(O)CN1CCCCCC1` (stereo not shown) [Example 5, 1-(2,6-dimethylphenoxy)-3-hexamethyleneimino-propanol-2]: in data set [7], the “effective refractory period (in words)” value is listed as “prolong”, the “electric stimulus threshold (in words)” value was “increase”, the “spontaneous frequency” value was “decrease” and the “time of stimulus conduction (in words)” value is “prolong”. Also, in data set [1], the selectivity ratio is 110. The “Ventricle: Therapeutic index LD50:ED50 /i.v.//i.v./” value in the data set with Ventricle [2] turned out to be 7.7. In the data set with dogs, the “blood flow of arteria carotis” value was “increases”, the “blood flow of the artery femoralis” value was “increase”, the coronary resistance result is reported as “decrease” and the “oxygenization of the heart muscle” value is given as “improve”. Further, the “Auricle: Relative activity” value in the data set with Auricle [3] worked out at 7.14. Moreover, the activation at 0.2 µg/mL in the data set with left auricle (setting [10]) turned out to be 10%. Further, the activation at 0.2 µg/mL with left auricle (setting [11]) amounted to 24%. In addition, the activation at 0.2 µg/mL with left auricle (setting [12]) stood at 38%. Further, in data set [4] (setting [13]), the selectivity ratio amounted to 13.3. In addition, in data set [4] (setting [14]), the selectivity ratio worked out at 189. In addition, the inhibition at 0.2 µg/mL in the data set with right auricle was 4 ± 2%. In the data set with Ventricle [6], the “Ventricle: Relative activity” value came out at 8.04. The activation at 0.2 µg/mL with papillary muscle (setting [15]) is 9%. The activation at 0.2 µg/mL in the data set with papillary muscle (setting [16]) stood at 46%.

For the compound `Cc1cccc(C)c1NCC(O)CN1CCCCCC1` (stereo not shown) [Example 7, 1-hexamethyleneimino-3-(2,6-dimethylanilino)propanol-2], the “effective refractory period (in words)” value in data set [7] was “prolong”. The “electric stimulus threshold (in words)” value in data set [7] was “increase”. The “spontaneous frequency” value in data set [7] was “decrease”. Moreover, in [7], the “time of stimulus conduction (in words)” value was “prolong”. Moreover, the selectivity ratio in data set [1] is 209; in data set [4] (setting [13]), 20.7; in data set [4] (setting [14]), 439. Further, the “Ventricle: Therapeutic index LD50:ED50 /i.v.//i.v./” value in the data set with Ventricle [2] was determined as 9.9. In addition, the “quotient i.v. LD50 / i.v. ED50, times higher than that of quinidine” value in the data set on Ventricle [2] (setting [17]) is recorded as “about 1.4 times”. Further, the “Auricle: Relative activity” value in the data set on Auricle [3] is recorded as 8.54. The activation at 0.5 µg/mL is 11% in the data set with left auricle (setting [10]); 25% with left auricle (setting [11]); 28% in the data set on left auricle (setting [12]); 10% with papillary muscle (setting [15]); 29% in the data set with papillary muscle (setting [16]). Further, in the data set with right auricle (0.5 mg/l), the inhibition at 0.5 µg/mL was 9 ± 1%. Moreover, in the data set with Ventricle [6], the “Ventricle: Relative activity” value is 7.85.
